According to patent publication US12473304B2, “Heterocyclic PAD4 inhibitors” (BRISTOL-MYERS SQUIBB COMPANY, priority 2020, dated 2025):

target: human PAD4 (hPAD4) (Homo sapiens (Human), UniProt Q9UM07); experiment: RFMS Human PAD4 Functional Assay 1; assay type: biochemical; settings: RFMS assay 1; 5 nM hPAD4, 250 μM BAEE substrate, 50 μM calcium, 37° C.
In short: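 Citrullination product read by RapidFire triple-quad MRM against a modified-citrulline internal standard, after TCA stop and 30 min phenyl glyoxal step at 37 °C. Reaction: 250 μM BAEE, 5 nM human PAD4, 90 min at 37 °C, pH 7.5 HEPES buffer with 50 μM calcium and 5 μM TPEN, following 30 min compound–enzyme preincubation (max 50 μM).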

human PAD4 (hPAD4), sequence (Q9UM07 whole entry): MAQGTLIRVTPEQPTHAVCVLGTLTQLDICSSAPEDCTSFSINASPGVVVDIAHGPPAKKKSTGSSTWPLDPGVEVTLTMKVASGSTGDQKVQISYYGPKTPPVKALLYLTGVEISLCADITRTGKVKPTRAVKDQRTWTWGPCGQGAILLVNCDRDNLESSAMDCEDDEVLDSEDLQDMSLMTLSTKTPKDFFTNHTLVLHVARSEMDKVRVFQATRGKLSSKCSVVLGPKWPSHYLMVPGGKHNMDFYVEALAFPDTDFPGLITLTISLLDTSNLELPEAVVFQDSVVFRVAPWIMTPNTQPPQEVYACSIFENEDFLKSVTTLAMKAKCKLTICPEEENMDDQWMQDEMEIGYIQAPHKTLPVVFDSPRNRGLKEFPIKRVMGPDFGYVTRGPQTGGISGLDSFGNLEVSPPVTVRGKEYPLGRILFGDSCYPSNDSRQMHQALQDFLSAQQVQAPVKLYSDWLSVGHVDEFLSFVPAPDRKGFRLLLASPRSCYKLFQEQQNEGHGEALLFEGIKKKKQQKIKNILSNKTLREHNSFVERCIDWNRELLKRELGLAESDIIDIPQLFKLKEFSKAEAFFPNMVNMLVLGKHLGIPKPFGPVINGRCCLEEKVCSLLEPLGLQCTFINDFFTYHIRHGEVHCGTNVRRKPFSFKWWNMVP

Row | Compound | IC50 [nM]
1 | COCC(=O)N1CCC(c2cc(F)cc3cc(-c4nn5cc(C(=O)N6C[C@H](N)C[C@@H](F)C6)cc(OC)c5c4C)n(CC4CC4)c23)CC1 [Example 481, 1-(4-(2-(6-((3R,5R)-3-Amino-5-fluoropiperidine-1-carbonyl)-4-methoxy-3-methylpyrazolo[1,5-a]pyridin-2-yl)-1-(cyclopropylmethyl)-5-fluoro-1H-indol-7-yl)piperidin-1-yl)-2-methoxyethan-1-one] | 120
2 | COc1cc(C(=O)N2C[C@H](N)C[C@@H](F)C2)cn2nc(-c3cc4cc(F)cc(C5CCN(C(C)=O)CC5)c4n3CC3CC3)c(C)c12 [Example 482, 1-(4-(2-(6-((3R,5R)-3-Amino-5-fluoropiperidine-1-carbonyl)-4-methoxy-3-methylpyrazolo[1,5-a]pyridin-2-yl)-1-(cyclopropylmethyl)-5-fluoro-1H-indol-7-yl)piperidin-1-yl)ethan-1-one] | 60
3 | COc1cc(C(=O)N2CCC[C@@H](N)C2)cn2nc(-c3cc4cc(F)cc(C5CCN(C(C)=O)CC5)c4n3CC3CC3)c(C)c12 [Example 483, (R)-1-(4-(2-(6-(3-Aminopiperidine-1-carbonyl)-4-methoxy-3-methylpyrazolo[1,5-a]pyridin-2-yl)-1-(cyclopropylmethyl)-5-fluoro-1H-indol-7-yl)piperidin-1-yl)ethan-1-one] | 150
4 | Cc1c(-c2cc3cc(F)cc(C4CCN(C(=O)[C@H]5CC[C@H](O)CC5)CC4)c3n2CC2CC2)nn2cc(C(=O)N3CCC[C@@H](N)C3)ccc12 [Example 484, ((R)-3-Aminopiperidin-1-yl)(2-(1-(cyclopropylmethyl)-5-fluoro-7-(1-((1r,4r)-4-hydroxycyclohexane-1-carbonyl)piperidin-4-yl)-1H-indol-2-yl)-3-methylpyrazolo[1,5-a]pyridin-6-yl)methanone] | 150
5 | Cc1c(-c2cc3cc(F)cc(C4CCN(C(=O)[C@H]5CC[C@@H](O)CC5)CC4)c3n2CC2CC2)nn2cc(C(=O)N3CCC[C@@H](N)C3)ccc12 [Example 485, ((R)-3-Aminopiperidin-1-yl)(2-(1-(cyclopropylmethyl)-5-fluoro-7-(1-((1s,4s)-4-hydroxycyclohexane-1-carbonyl)piperidin-4-yl)-1H-indol-2-yl)-3-methylpyrazolo[1,5-a]pyridin-6-yl)methanone] | 150
6 | Cc1c(-c2cc3cc(F)cc(C4CCN(C(=O)[C@H]5CC[C@@H](O)CC5)CC4)c3n2CC2CC2)nn2cc(C(=O)N3C[C@H](N)C[C@@H](F)C3)ccc12 [Example 486, ((3R,5R)-3-Amino-5-fluoropiperidin-1-yl)(2-(1-(cyclopropylmethyl)-5-fluoro-7-(1-((1s,4s)-4-hydroxycyclohexane-1-carbonyl)piperidin-4-yl)-1H-indol-2-yl)-3-methylpyrazolo[1,5-a]pyridin-6-yl)methanone] | 70
7 | Cc1c(-c2cc3cc(F)cc(C4CCN(C(=O)[C@H]5CC[C@H](O)CC5)CC4)c3n2CC2CC2)nn2cc(C(=O)N3C[C@H](N)C[C@@H](F)C3)ccc12 [Example 487, ((3R,5R)-3-Amino-5-fluoropiperidin-1-yl)(2-(1-(cyclopropylmethyl)-5-fluoro-7-(1-((1r,4r)-4-hydroxycyclohexane-1-carbonyl)piperidin-4-yl)-1H-indol-2-yl)-3-methylpyrazolo[1,5-a]pyridin-6-yl)methanone] | 200
8 | COC(C)(C)C(=O)N1CCC(c2cc(F)cc3cc(-c4nn5cc(C(=O)N6CCC[C@@H](N)C6)ccc5c4C)n(CC4CC4)c23)CC1 [Example 493, (R)-1-(4-(2-(6-(3-Aminopiperidine-1-carbonyl)-3-methylpyrazolo[1,5-a]pyridin-2-yl)-1-(cyclopropylmethyl)-5-fluoro-1H-indol-7-yl)piperidin-1-yl)-2-methoxy-2-methylpropan-1-one] | 110
